Results on one molecule are retold here after article PMC12703733, “Probing Guanidino Pendant or Bridged Groups in Cyclic Antimicrobial Peptides Derived from Temporin L: A Strategy to Improve Efficacy against Gram-Negative Bacteria” (Journal of Medicinal Chemistry, 2025).

The subject of one data set is all bacteria tested. Kind of data set: MIC panel, geometric mean over all strains. The data set is classed as cell-based. The conditions noted are these: geometric mean of the MICs against all bacteria tested. Here is the method: (§1) The antimicrobial efficacy of the TLcyc analogues was assessed against a representative panel of Gram-positive and Gram-negative bacterial strains, by determining their minimal inhibitory concentrations (MIC), as summarized in Table . To provide an integrated measure of antimicrobial potency, we calculated the geometric mean (GM) of MIC values across all strains (GMall), as well as separately for Gram-positive (GMGram+) and Gram-negative (GMGram–) bacteria.
(§2) Bacterial strains used in this study were the Gram-positive S. aureus ATCC 25923, S. epidermidis ATCC 12228, B. megaterium BM11, S. agalactiae ATCC 27591, E. faecalis ATCC 29212 and the Gram-negative E. coli ATCC 25922, P. aeruginosa ATCC 27853, A. baumannii ATCC 19606, E. coli D21 and P. aeruginosa PAO1. […] Bacterial cells in the mid log phase were diluted in Muller Hinton (MH) at a concentration of 2 × 10^6 cell/mL. Aliquots of 50 μL of this bacterial suspension were added to 50 μL of MH containing serial 2-fold dilutions of the peptides (from 100 to 0.19 μM) in the wells a 96-well plate. Ciprofloxacin was used as antibiotic control. The plate was then incubated at 37 °C. MICs were obtained from three identical readings of four independent experiments.

The test system of another data set is P. aeruginosa ATCC 27853. Further details: method as in Bellavita et al. The conditions noted are these: previously determined for peptide 12, ref Bellavita et al.; cited from earlier work.
Data set [1] concerns S. epidermidis ATCC 12228. Further details: method as in Bellavita et al. As to conditions: previously determined for peptide 12, ref Bellavita et al., cited from earlier work.
The test system of data set [2] is Gram-positive bacteria tested. Kind of data set: MIC panel, Gram-positive strains (geometric mean, range). The data set is classed as cell-based. The conditions noted are these: geometric mean of the MICs against Gram-positive bacteria tested. As for the experimental part: as §1, §2
The test system of a further data set is S. aureus ATCC 25923. Further details: method as in Bellavita et al. The conditions noted are these: previously determined for peptide 12, ref Bellavita et al., cited from earlier work.
A further data set has as its system A. baumannii ATCC 19606. Further details: method as in Bellavita et al. As to conditions: previously determined for peptide 12, ref Bellavita et al., cited from earlier work.
In another data set the test system is B. megaterium BM11. Further details: method as in Bellavita et al. The conditions noted are these: previously determined for peptide 12, ref Bellavita et al., cited from earlier work.
Another data set deals with E. coli ATCC 25922. Further details: method as in Bellavita et al. The conditions noted are these: previously determined for peptide 12, ref Bellavita et al., cited from earlier work.
In the next data set the test system is E. coli D21. Kind of data set: microbe, parasite or virus in culture. As to conditions: D21. The data set is classed as cell-based. In short, it runs like this: (§3)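 Mid-log bacteria diluted to 2 × 10^6 cell/mL in Mueller Hinton broth and incubated with compound at 37 °C; ciprofloxacin as control. MICs from three identical readings across four independent experiments.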

Another data set relates to E. faecalis ATCC 29212. As to the kind of experiment: microbe, parasite or virus in culture. The data set is classed as cell-based. The conditions noted are these: ATCC 29212. In short, it runs like this: as §3
The test system of a further data set is S. agalactiae ATCC 27591. As to the kind of experiment: microbe, parasite or virus in culture. As to conditions: ATCC 27591. The data set is classed as cell-based. In short, it runs like this: as §3
In another data set the test system is P. aeruginosa PAO1. Kind of data set: microbe, parasite or virus in culture. The data set is classed as cell-based. The conditions noted are these: PAO1. In short, it runs like this:
as §3

Data set [3] relates to Gram-negative bacteria tested. As to the kind of experiment: MIC panel, Gram-negative strains (geometric mean). The data set is classed as cell-based. As to conditions: geometric mean of the MICs against Gram-negative bacteria tested. As for the experimental part: as §1, §2
On the set-up of data set [4]: method as in Bellavita et al. As to conditions: CD in H2O; previously determined for peptide 12; ref Bellavita et al.; cited from earlier work.

The structures appear in SMILES notation. Converted amounts (≈) assume the structure as drawn. Where two headings read alike, the source gives them in different places. Marks after values point to notes of the source that are not given here. Bridge positions count the residues as written; N and C are the ends. Square brackets hold non-standard residues; d marks the D form. Peptide text beside a SMILES is read from it.

Turning to `CC[C@H](C)[C@H](NC(=O)[C@H](CCCNC(=N)N)NC(=O)[C@@H]1CCC(=O)NCCCC[C@H](NC(=O)[C@H](Cc2ccccc2)NC(=O)[C@H](Cc2c[nH]c3ccccc23)NC(=O)[C@@H]2CCCN2C(=O)[C@@H](NC(=O)[C@@H](N)Cc2ccccc2)C(C)C)C(=O)N[C@@H](CCCCN)C(=O)N[C@@H](Cc2ccccc2)C(=O)N[C@H](CC(C)C)C(=O)N1)C(=O)N[C@@H](CC(C)C)C(N)=O` [Peptide 1, FVPWF[KKFlE]RIL] (H-FVPWFKKF[dL]ERIL-NH2; lactam 6-10), in the data set with all bacteria tested, the “geometric mean GMall” value amounted to 7.67 µM. Besides, the MIC was 100 ^a μM in the data set on P. aeruginosa ATCC 27853; 3.12 ^a μM in data set [1] (listed as 1 (TL cyc )); 3.12 µM (≈ 5.32 µg/mL) in [1]; 3.12 ^a μM in the data set with S. aureus ATCC 25923 (listed as 1 (TL cyc )); 3.12 µM (≈ 5.32 µg/mL) in the data set with S. aureus ATCC 25923; 3.12 ^a μM in the data set on A. baumannii ATCC 19606 (listed as 1 (TL cyc )). Further, the MIC in the data set with A. baumannii ATCC 19606 was 3.12 µM (≈ 5.32 µg/mL); in the data set with B. megaterium BM11 (listed as 1 (TL cyc )), 1.56 ^a μM; with B. megaterium BM11, 1.56 µM (≈ 2.66 µg/mL); in the data set on E. coli ATCC 25922 (listed as 1 (TL cyc )), 25 ^a μM; in the data set on E. coli ATCC 25922, 25 µM (≈ 42.6 µg/mL); in the data set with E. coli D21, 12.5 µM (≈ 21.3 µg/mL). For the same molecule, the MIC turned out to be 6.25 µM (≈ 10.7 µg/mL) in the data set on E. faecalis ATCC 29212, 3.12 µM (≈ 5.32 µg/mL) with S. agalactiae ATCC 27591 and 25 µM (≈ 42.6 µg/mL) in the data set on P. aeruginosa PAO1. The “geometric mean GMGram+” value in data set [2] is 3.12 µM. In [3], the “geometric mean GMGram–” value was determined as 18.9 µM. The “Content in water (%) random” value in data set [4] was 55%. Also, the “Content in water (%) α-helix” value in data set [4] is recorded as 2%. Moreover, the “Content in water (%) β-strand” value in data set [4] is 41%.
